Results published in patent US20250073351A1, “IMPROVED COMPOSITIONS FOR DELIVERY OF MRNA” (TRANSLATE BIO, INC., priority 2021, published 2025).

Test system: lungs of mice
Assay: In vivo screen of cationic lipids for pulmonary delivery of FFL mRNA-LNP (IVIS imaging)
Details: LNP with DOPE, DMG-PEG2K, optionally cholesterol; about 5 hours post-dose
Experimental: In this example, various cationic lipids were tested for in Wvo efficacy when mRNA encapsulated in lipid nanoparticles (mRNA-LNP) were administered to mice by pulmonary delivery. The cationic lipids were tested for both potency, as determined by levels of protein production, and tolerability, as determined by side effects associated with clearance and metabolism.
About 150 cationic lipids were tested. (FIG. 16). Each cationic lipid was used in preparing lipid nanoparticles encapsulating mRNA encoding firefly luciferase protein (FFL mRNA) according to methods known in the art. For example, suitable methods for mRNA encapsulation include methods described in International Publication Nos. WO2016/004318 and WO 2018/089801, which are hereby incorporated by reference in their entirety. The tested lipid nanoparticles comprised a lipid component consisting of a cationic lipid, a non-cationic lipid (DOPE), a PEG-modified lipid (DMG-PEG2K), and optionally cholesterol.
Lipid nanoparticle formulations comprising FFL mRNA were administered to mice. At approximately 5 hours post-dose, the animals were dosed with luciferin by intraperitoneal injection and all animals were imaged using an IVIS imaging system to measure luciferase production in the lung. […] Some cationic lipids remarkably had greater than 50-fold increase in pulmonary protein expression as compared to other cationic lipids.

Question: For `CCCCC/C=C\C/C=C\CCCCCCCC(=O)OCC(COC(=O)CCCCCCC/C=C\C/C=C\CCCCC)(COC(=O)CCCCCCC/C=C\C/C=C\CCCCC)NCCS(=O)(=O)NCCN(C)C` [GL-TES-SA-DME-E18-2, 2-((2-(N-(2-(dimethylamino)ethyl)sulfamoyl)ethyl)amino)-2-((((9Z,12Z)-octadeca-9,12-dienoyl)oxy)methyl)propane-1,3-diyl (9Z,9′Z,12Z,12′Z)-bis(octadeca-9,12-dienoate)], which “potency as determined by the average radiance detected in mouse lungs” value (from here on “potency as determined”) is on record?
Answer: The value was “particularly high potency”.

Question: With `CCCCC/C=C\C/C=C\CCCCCCCC(=O)OCC(COC(=O)CCCCCCC/C=C\C/C=C\CCCCC)(COC(=O)CCCCCCC/C=C\C/C=C\CCCCC)NCCS(=O)(=O)NCCCN(C)C` [GL-TES-SA-DMP-E18-2] as the compound, how does the “potency as determined” value read?
Answer: Its value is “particularly high potency”.

Question: `CCCCCCCCC(O)CN(CCCC(=O)OCCN1CC(C)N(CCOC(=O)CCCN(CC(O)CCCCCCCC)CC(O)CCCCCCCC)CC1C)CC(O)CCCCCCCC` (stereo not drawn) [HEP-E3-E10] was tested. Which “potency as determined” value did it give?
Answer: The value was “particularly high potency”.

Question: `CCCCCCCCC(O)CN(CCCCC(=O)OCCN1CC(C)N(CCOC(=O)CCCCN(CC(O)CCCCCCCC)CC(O)CCCCCCCC)CC1C)CC(O)CCCCCCCC` (stereo not drawn) [HEP-E4-E10] was tested. Which “potency as determined” value did it give?
Answer: Its value is “particularly high potency”.

Question: How did the “potency as determined” value turn out when `CCCCCCCCOC(=O)CC(CC(=O)OCCCCCCCC)(OC(=O)CCN(C)C)C(=O)OCCCCCCCC` [TL1-01D-DMA, trioctyl 2-((3-(dimethylamino)propanoyl)oxy)propane-1,2,3-tricarboxylate] was run?
Answer: Its value is “particularly high potency”.

Question: For `CCCCCCCCCCCCCCOC(=O)CC(CC(=O)OCCCCCCCCCCCCCC)(OC(=O)CCN(C)C)C(=O)OCCCCCCCCCCCCCC` [TL1-04D-DMA], which “potency as determined” value is on record?
Answer: Its value is “particularly high potency”.
